The values below come from US10342796B2, “Acrylanilide derivative, preparation method, and applications thereof in pharmacy” (Ancureall Pharmaceutical (Shanghai) Co., Ltd., priority 2015, dated 2019).

What all share (test): Growth inhibition GI50 in vitro (CCK8/MTT, 72 h)
For assay [1], the system named is H1975 (EGFR L858R/T790M). It is filed as cell-based, human. Particulars: Homo sapiens, NCI-H1975.
The subject of assay [2] is PC-9 (EGFR dE746-A750). The assay is classed as cell-based, human. Particulars: Homo sapiens.
The subject of assay [3] is PC-9ER (EGFR delE746-A750/T790M). The assay is classed as cell-based, human. Particulars: Homo sapiens, PC-9/ER; EGFR mutant cell line; range of GI50; read-out: GI50 PC9ER.
Assay [4] relates to HCC827 (EGFR dE746-A750). It is filed as cell-based, human. Particulars: Homo sapiens.
Assay [5] concerns AU565 (Her2 amp). The assay is classed as cell-based, human. Particulars: Homo sapiens.
The subject of assay [6] is N87 (HER2 Amp). The assay is classed as cell-based, human. Particulars: Homo sapiens.
For assay [7], the system named is SK-BR-3 (Her2 amp). It is filed as cell-based, human. Particulars: Homo sapiens.
The test system of assay [8] is H292 (EGFR WT). It is filed as cell-based. Particulars: Homo sapiens, NCI-H292. The text has this: EGFR wild type cell lines: human epidermal cancer cell line A431 (EGFR WT, amplification and high expression, from Shanghai Cell Bank of Chinese Academy of Sciences and ATCC), NSCLC cell lines NCI-H460 (EGFR WT, Kras G61H and PI3KCA E545K mutants, ATCC) and NCI-H1299 (EGFR WT, ATCC), melanoma cell line A375 (EGFR WT and BRAF V600E mutant, from Shanghai Cell Bank of Chinese Academy of Sciences, ATCC), human lung cancer cell line NCI-H292 (EGFR WT, from human lung mucoepidermoid carcinoma/lymphatic metastasis, purchased from Shanghai Cell Bank of Chinese Academy of Sciences) were cultured with 1×RPMI1640 complete medium which was supplement with 10% FBS. NSCLC cell line A549 (EGFR WT and Kras G12S mutant, from Shanghai Cell Bank of Chinese Academy of Sciences) was cultured with 1×Ham'S F12K complete medium which was supplement with 10% FBS, 1% double-antibiotics and 2 mM glutamine.
(§1) The suspension cells were collected by centrifugation. The supernatant was discard and the cell pellet was resuspended and counted. Different cell concentrations (5˜10×10^4 cells/mL) were prepared according to the growth cycle of each cell line and then seeded on a 96-well plate (Corning), 100 μL/well. The cells were incubated over night at 37° C., 5% CO2. The compounds were added to the cells on the second day with 2 wells in parallel. The final concentration of organic solvent shall not exceed 1%. The cells were continually incubated for 72 h, and then subjected to MTT assay.
(§2) The present compounds and the reference compounds were dissolved with DMSO (Sigma), respectively. […] The storage concentration of compounds was 10 mM and kept at −20° C. They were diluted by 2 times or 10 times with serial dilution before using.
(§3) Dojindo CCK8 reagent kit was used as MTT assay. […] FC meter was used as microplate reader.
(§4) Adherent cell culture medium was discard and immediately replaced with fresh prepared medium which contains 10% CCK8 reagent (100 μL/well). For the suspension cells, CCK8 was directly added to 10% of the final concentration. The cells were continually incubated for 1˜4 h. When the color of control wells turned to dark yellow, the absorption value was measured at OD450 nm. The cell growth rate was calculated according to the following formula: cell growth rate (%)=100*(T−T0)/(C−T0), T=optical density of drug treatment cell well—optical density of blank control well; T0=optical density of cell well before drug treatment—optical density of blank control well; C=optical density of cell well of solvent control group—optical density of blank control well. […] The experiment was independently repeated 1˜3 times, and subject to biological statistical analysis.

Assay [9] relates to A549 (EGFR WT). The assay is classed as cell-based, human. Particulars: Homo sapiens.
Assay [10] deals with H1299 (EGFR wt, Nras Q61K). The assay is classed as cell-based, human. Particulars: Homo sapiens, NCI-H1299.
Assay [11] has as its system H460 (EGFR wt, Kras G61H). It is filed as cell-based, human. Particulars: Homo sapiens, NCI-H460.
Assay [12] has as its system A431 (EGFR WT, amplification and high expression). It is filed as cell-based, human. Particulars: Homo sapiens, A-431.
Assay [13] deals with Calu-3 (Her2 amp). The assay is classed as cell-based. Particulars: Homo sapiens, Calu-3; Table 16; 1000 nM to 0.03 nM serial dilution; read-out: GI50 Calu3 (HER2 amp). Here is the method:
Human lung adenocarcinoma cell line Calu-3 (ATCC) was cultured with 1×MEM complete medium (10% FBS, 1% double-antibiotics, 1% NEAA (Gibco), 2 mM glutamine and 1 mM of sodium pyruvate). Human breast cancer cell line SK-BR-3 was cultured with McCOY'S5A complete medium (10% FBS). Human colon cancer cell line SNU1040 (HER2 V777M positive) (ATCC) and human bronchoalveolar adenocarcinoma cell line NCI-H1781 (expressing HER2 exon 20 G776VC mutation) (ATCC) were cultured with 1×RPMI1640 complete medium (10% FBS), respectively.
as §1, §2, §3, §4

The mark [14] stands for this setting: EGFR mutant cell line, range of GI50, read-out: GI50 H1975.
Setting [15] is: EGFR mutant cell line, range of GI50, read-out: GI50 PC-9.
[16] abbreviates: HCC827, EGFR mutant cell line, range of GI50, read-out: GI50 HCC827.
Setting [17] is: AU565, HER2 positive cell line, range of GI50, read-out: GI50 AU-565.
Setting [18] is: HER2 positive cell line, range of GI50, read-out: GI50 N87.
Setting [19] is: SK-BR-3, HER2 positive cell line, range of GI50, read-out: GI50 SK-BR-3.
Where [20] appears, read: A549, EGFR wild type cell line, range of GI50, read-out: GI50 A549.
Where [21] appears, read: EGFR wild type cell line, range of GI50, read-out: GI50 H1299.
[22] abbreviates: EGFR wild type cell line, range of GI50, read-out: GI50 H460.
Setting [23] is: EGFR wild type cell line, range of GI50, read-out: GI50 A431.
Setting [24] is: Table 13, 72 h, read-out: Range of GI50 H1975 (EGFR L858R/T790M).
The mark [25] stands for this setting: Table 15, 1000 nM to 0.03 nM serial dilution, read-out: GI50 H1975 (EGFR L858R/T790M).
Setting [26] is: Table 13, 72 h, read-out: Range of GI50 PC-9 (EGFR dE746-A750).
Setting [27] is: Table 15, 1000 nM to 0.03 nM serial dilution, read-out: GI50 PC-9 (EGFR dE746-A750).
The mark [28] stands for this setting: Table 13, 72 h, read-out: Range of GI50 N87 (HER2 Amp).
Where [29] appears, read: Table 16, 1000 nM to 0.03 nM serial dilution, read-out: GI50 N87 (HER2 amp).
Setting [30] is: Table 15, 1000 nM to 0.03 nM serial dilution, read-out: GI50 H292 (EGFR WT).
Where [31] appears, read: A549, Table 13, 72 h, read-out: Range of GI50 A549 (EGFR WT).
[32] abbreviates: A549, Table 15, 1000 nM to 0.03 nM serial dilution, read-out: GI50 A549 (EGFR WT).

Each structure is given as a SMILES string. Like-named read-outs stand apart in the source and are kept apart here.

Turning to `C=CC(=O)Nc1cc(Nc2nccc(-n3cnc4ccccc43)n2)c(OC)cc1N(C)CCN(C)C` [Compound 106], the GI50 is 0.01 to 0.1 µM in assay [1] (setting [14]); 0.0152 µM in assay [1] (H1975, EGFR L858R/T790M, read-out: GI50); 0.01 to 0.1 µM in assay [2] (setting [15]); 0.0156 µM in assay [2] (PC-9, EGFR dE746-A750, read-out: GI50); 0.01 to 0.1 µM in assay [3]; 0.01 to 0.1 µM in assay [4] (setting [16]). The GI50 is 0.0126 µM in assay [4] (HCC827, EGFR dE746-A750, read-out: GI50); 0.01 to 0.1 µM in assay [5] (setting [17]); 0.0195 µM in assay [5] (AU565, EGFR wt, Her2 amp, read-out: GI50); 0.01 to 0.1 µM in [6] (setting [18]); 0.0236 µM in assay [6] (N87, EGFR wt, Her2 amp, read-out: GI50); 0.01 to 0.1 µM in assay [7] (setting [19]). Besides, the GI50 in assay [7] (SK-BR-3, EGFR wt, Her2 amp, read-out: GI50) was 0.101 µM; in [8] (H292, EGFR wt, read-out: GI50), over 1 µM; in assay [9] (setting [20]), over 1 µM; in assay [9] (A549, EGFR wt, Kras G12S, read-out: GI50) it was over 1 µM; in assay [10] (setting [21]) it was over 1 µM; in assay [10] (H1299, EGFR wt, Nras Q61K, read-out: GI50), over 1 µM. For the same molecule, the GI50 in [11] (setting [22]) was over 1 µM; in [11] (H460, EGFR wt, Kras G61H, read-out: GI50) it was over 1 µM; in assay [12] (A431, EGFR wt, read-out: GI50), 0.498 µM; in assay [12] (setting [23]), 0.1 to 1 µM.
As for `C=CC(=O)Nc1cc(Nc2cc(Nc3cc(F)c(OC)c(Cl)c3)ncn2)c(OC)cc1N(C)CCN(C)C` [Compound 236, N-(5-(6-(3-chloro-5-fluoro-4-methoxyphenylamino)-pyrimidin-4-yl-amino)-2-((2-dimethylamino-ethyl)-methyl-amino)-4-methoxyl-phenyl)-acrylamide], the GI50 in assay [1] (setting [24]) is under 0.01 µM; in assay [1] (setting [25]), 0.00388 µM; in [2] (setting [26]), under 0.01 µM; in assay [2] (setting [27]) it was 0.00149 µM; in assay [13], 0.00146 µM; in [6] (setting [28]), under 0.01 µM. The GI50 in assay [6] (setting [29]) is 0.00082 µM; in assay [8] (setting [30]), over 1 µM; in [9] (setting [31]), over 1 µM; in [9] (setting [32]) it was over 1 µM.
For `C=CC(=O)Nc1cc(Nc2cc(-c3cn(C(C)C)c4ccc(F)cc34)ncn2)c(OC)cc1N(C)CCN(C)C` [Compound 191, N-(5-(6-(5-fluoro-1-isopropyl-1H-indol-3-yl)-pyrimidin-4-ylamino)-4-methoxyl-2-((2-dimethylamino-ethyl)-methyl-amino)-phenyl)-acrylamide], the GI50 in [1] (setting [14]) was under 0.01 µM; in assay [2] (setting [15]) it was under 0.01 µM; in assay [3] it was under 0.01 µM; in assay [4] (setting [16]), under 0.01 µM; in assay [5] (setting [17]) it was 0.01 to 0.1 µM; in [6] (setting [18]), under 0.01 µM. For the same molecule, the GI50 in [7] (setting [19]) was under 0.01 µM; in assay [9] (setting [20]), over 1 µM; in assay [10] (setting [21]), over 1 µM; in assay [11] (setting [22]), over 1 µM; in assay [12] (setting [23]) it was 0.1 to 1 µM.
For `C=CC(=O)Nc1cc(Nc2ncnc(Nc3cccc(Br)c3)n2)c(OC)cc1N(C)CCN(C)C` [Compound 115, N-(5-(4-(3-bromo-phenylamino)-[1,3,5]triazin-2-ylamino)-2-((2-dimethylamino-ethyl)-methyl-amino)-4-methoxyl-phenyl)-acrylamide], the GI50 in [1] (setting [14]) is 0.01 to 0.1 µM; in assay [2] (setting [15]) it was under 0.01 µM; in assay [3] it was under 0.01 µM; in assay [4] (setting [16]), under 0.01 µM; in assay [5] (setting [17]) it was 0.01 to 0.1 µM; in [6] (setting [18]), under 0.01 µM. Besides, the GI50 in assay [7] (setting [19]) was under 0.01 µM; in assay [9] (setting [20]), over 1 µM; in assay [10] (setting [21]), over 1 µM; in assay [11] (setting [22]), over 1 µM; in assay [12] (setting [23]) it was 0.1 to 1 µM.
As for `C=CC(=O)Nc1cc(Nc2cc(Nc3ccc(OCC4CCOCC4)c(Cl)c3)ncn2)c(OC)cc1N(C)CCN(C)C` [Compound 216, N-(5-(6-(3-chloro-4-(tetrahydropyran-4-yl-methoxyl)-phenylamino)-pyrimidin-4-ylamino)-2-((2-dimethylaminoethyl)-methyl-amino)-4-methoxyphenyl)-acrylamide], the GI50 in assay [1] (setting [24]) was under 0.01 µM; in assay [1] (setting [25]) it was 0.00896 µM; in [2] (setting [26]) it was under 0.01 µM; in [2] (setting [27]), 0.00987 µM; in assay [6] (setting [28]) it was under 0.01 µM; in assay [6] (setting [29]) it was 0.0195 µM. Besides, the GI50 in [8] (setting [30]), in assay [9] (setting [31]) and in assay [9] (setting [32]) was over 1 µM each time.
In the case of `C=CC(=O)Nc1cc(Nc2nccc(-n3ccc4ccc(F)cc43)n2)c(OC)cc1N(C)CCN(C)C` [Compound 63, N-(5-(4-(6-fluoro-1H-indol-1-yl)-pyrimidin-2-ylamino)-2-((2-(dimethylamino)ethyl)-methyl-amino)-4-methoxyl-phenyl)-acrylamide], the GI50 in assay [1] (setting [14]) was 0.01 to 0.1 µM; in assay [2] (setting [15]), under 0.01 µM; in assay [3], 0.01 to 0.1 µM; in assay [4] (setting [16]), under 0.01 µM; in assay [5] (setting [17]), 0.1 to 1 µM; in assay [6] (setting [18]), 0.01 to 0.1 µM. Besides, the GI50 in assay [7] (setting [19]) was 0.1 to 1 µM; in assay [9] (setting [20]), over 1 µM; in assay [10] (setting [21]), over 1 µM; in assay [11] (setting [22]) it was over 1 µM; in assay [12] (setting [23]), 0.1 to 1 µM.
